The results in this text go back to patent US8796201B2 (The Board of Trustees of the Leland Stanford Junior …, priority 2002, dated 2014).

Series [1] addresses T1, EPB2 (Hordeum vulgare, UniProt P25250).
T1 construct: made in house; host or cells: E. coli BL21, plasmid pMTB1 (pET28b), inclusion bodies solubilised in 7 M urea
The series can be described thus: Inhibition of EPB2 α2-gliadin digestion. Type of series: biochemical, barley (Hordeum vulgare subsp. vulgare). The text has this:
The pH optimum of proEPB2 activation and α2-gliadin digestion is 2.4-3.5, which can therefore provide a treatment for Celiac Sprue consisting of oral administration of proEPB2.

The test system of series [2] is gastric and pancreatic proteases. The series can be described thus: Gastric and pancreatic protease digestion of recombinant α2-gliadin. Type of series: in vitro ADME. Conditions: extended reaction times. The source says: […]. […] No long intermediate is observed to accumulate.
Series [3] relates to human brush border membrane (BBM). Type of series: in vitro ADME. Conditions: kidney or brush border membranes, 100 μM. The source says: (SEQ ID NO:12) […]
Series [4] concerns rat brush border membrane (BBM) peptidases. Type of series: in vitro ADME. Conditions: kidney or brush border membranes. As to the method:
To investigate the digestion of gluten, liquid chromatography coupled mass spectroscopy analysis (LC-MS-MS) was utilized to investigate the pathways and associated kinetics of hydrolysis of immunodominant gliadin peptides treated with rat BBM preparations. Because the rodent is an excellent small animal model for human intestinal structure and function, rat BBM was chosen as a suitable model system for these studies.
BBM fractions were prepared from rat small intestinal mucosa as described in Ahnen et al. (1982) J. Biol. Chem. 257, 12129-35. […] No proline aminopeptidase (EC 3.4.11.5) or prolyl endopeptidase activity (PEP, EC 3.4.21.26) activity was detectable (<5 μU/μg). Alkaline phosphatase and sucrase were used as control BBM enzymes with activities of 66 μU/μg and 350 μU/μg, respectively.
BBM fractions were partially purified from the small intestinal mucosa of adult female rats maintained on an ad libitum diet of wheat-based standard rodent chow. Total protein content was determined by a modified method of Lowry with BSA as a standard. Alkaline phosphatase activity was determined with nitrophenyl phosphate. Sucrase activity was measured using a coupled glucose assay. […] PEP activity was determined continuously with 0.4 mM Z-Gly-Pro-pNA in PBS:H2O:dioxane (8:1.2:0.8) at 30° C. One unit is the consumption of 1 μmol substrate per minute.
Proteolysis with the BBM preparation was investigated using the peptide (SEQ ID NO:1) […], a product of chymotryptic digestion of α-9 gliadin (Arentz-Hansen et al. (2000) J. Exp. Med. 191, 603-12). […] It was subjected to BBM digestion, followed by LC-MS-MS analysis. A standard 50 μl digestion mixture contained 100 μM of synthetic peptide, 10 μM tryptophan and Cbz-tryptophan as internal standards, and resuspended BBM preparations with a final protein content of 27 ng/μl and exogenous proteins, as indicated, in phosphate buffered saline. After incubation at 37° C. for the indicated time, the enzymes were inactivated by heating to 95° C. for 3 minutes. The reaction mixtures were analyzed by LC-MS (SpectraSystem, ThermoFinnigan) using a C18 reversed phase column (Vydac 218TP5215, 2.1×150 mm) with water:acetonitrile:formic acid (0.1%):trifluoroacetic acid (0.025%) as the mobile phase (flow: 0.2 ml/min) and a gradient of 10% acetonitrile for 3 minutes, 10-20% for 3 minutes, 20-25% for 21 minutes followed by a 95% wash. Peptide fragments in the mass range of m/z=300-2000 were detected by electrospray ionization mass spectroscopy using a LCQ ion trap and their identities were confirmed by MSMS fragmentation patterns.
BBM fractions were prepared from rat small intestinal mucosa.

A short description of series [5]: In vivo perfusion of peptides through rat jejunum. Conditions: 15-20 cm jejunum segment, residence time 20 min. On the procedure:
FIG. 5. In vivo brush border membrane digestion of peptides.
In Vivo Endopeptidase Activity. An adult (female or male) rat was anesthetized and maintained at 36-37° C. during the entire surgical procedure. The peritoneal cavity was opened, and a small incision was made at the beginning and the end of a 15-20 cm jejunum segment. Polyethylene catheters were inserted and secured into the two ends. The input catheter was connected with a pump-driven syringe filled with a solution. The jejunum segment was perfused initially with PBS buffer to remove any residual debris at a flow rate of 0.4 ml/min. Purified peptide solutions (peptide concentration ranges from 25-100 μM) were then perfused at 0.4 ml/min through the jejunum segment with a 10-40 min residence time. In the case of a co-perfusion, the input catheter is connected with two simultaneous syringes, one with a peptide solution and the other with the prolyl endopeptidase solution (concentration ranges from 50-500 μU/μl). Fluid from the output catheter was collected into small centrifuge tubes in dry ice for subsequent analysis. The collected digestive products were analyzed by HPLC on a C18 column.

The subject of series [6] is carboxypeptidase A (C-0261, Sigma) and/or leucine aminopeptidase (L-5006, Sigma). The series can be described thus: 10 μg/ml carboxypeptidase A and/or 5.9 μg/ml leucine aminopeptidase. Conditions: 37° C., up to 160 min.
Series [7] relates to elastase. The series can be described thus: elastase at a high (non-physiological) concentration of 100 ng/μl.
Series [8] has as its system chymotrypsin. The series can be described thus: chymotrypsin.
The nature of series [9]: rat brush border membrane (BBM) protein preparations, 27 ng/μl, in phosphate buffered saline. Conditions: 37° C, up to overnight.
Series [10] can be described thus: resuspended rat brush border membrane (BBM) preparations in phosphate buffered saline. Conditions: 37° C.
Series [11] concerns rabbit lung DCP (Cortex Biochemicals, CA). The series can be described thus: BBM with exogenous rabbit lung DCP in phosphate buffered saline:Tris buffered saline=9:1. Conditions: rat, up to overnight.
In series [12] the test system is trypsin. The series can be described thus: trypsin.
Series [13] can be described thus: BBM with captopril in phosphate buffered saline:Tris buffered saline=9:1. Conditions: rat, up to overnight.
For series [14], the system named is prolyl endopeptidase (PEP, specific activity 28 μU/pg) from Flavobacterium meningosepticum (US Biological, MA). Nature of the series: 27 ng/μl brush border membranes with exogenous prolyl endopeptidase from Flavobacterium meningosepticum. Conditions: rat, up to one hour.
In series [15] the test system is DPP IV from Aspergillus fumigatus. The series can be described thus: rat BBM with exogenous DPP IV from Aspergillus fumigatus (0.28 μU DPP IV/ng BBM protein). Conditions: 37° C., up to four hours.

“Also recorded” adds a separate entry of the source. Where no end group is shown, it is not given here.

T1 sequence (P25250 134-373): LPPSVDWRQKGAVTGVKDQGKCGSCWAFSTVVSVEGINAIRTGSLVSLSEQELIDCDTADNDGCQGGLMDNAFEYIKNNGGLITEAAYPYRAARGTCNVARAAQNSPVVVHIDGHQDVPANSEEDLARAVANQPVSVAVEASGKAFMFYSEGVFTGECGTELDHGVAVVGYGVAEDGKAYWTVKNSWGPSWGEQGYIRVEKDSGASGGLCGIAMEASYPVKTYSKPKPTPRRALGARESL

Take `CC(=O)N[C@@H](CC(C)C)C(=O)N[C@@H](CC(C)C)C(=O)N[C@H](C=O)CCCNC(=N)N` [leupeptin]: the “effect on α2-gliadin digestion by EPB2” value in series [1] is listed as “inhibits this activity”.

As for “LQLQPFPQPQLPYPQPQLPYPQPQLPYPQPQPF [33-mer]”, in [2], the “stability toward gastric and pancreatic proteases” value is on record as “remained intact despite prolonged exposure to proteases”. In [3], the “Amount of Peptides Digested after 15 hours” value was under 20%. Moreover, in series [4], the half-life of digestion is over 20 h. Further, the “stability in the perfusion experiment” value in series [5] was “most of the 33-mer gliadin peptide remained intact”.

Consider PQPQLPYPQPQLPY, for which the fragment found entry in series [6], in series [11] and in series [13] was “PQPQLPYPQPQLP” each time. For the same molecule, the cleaved bond entry was “Q-L” in series [7] and “P-Y, first_seen” in [10]. For the same molecule, the not cleaved result in series [8] is given as “No proteolysis was detected”; in series [9], “no observed N-terminal processing”; in series [12], “No proteolysis was detected”.

Take QLQPFPQPQLPY: the results for the fragment found result in series [6] and in series [15] were “QLQPFPQPQLP; also recorded: QPFPQPQLP” and “QLQPFPQPQLP”, respectively. Besides, the cleaved bond entry in series [14] is given as “P-Q, major”.
